# From patent publication US10501479B2, “Benzenesulfonyl-asymmetric ureas and medical uses thereof” (HELSINN HEALTHCARE SA, priority 2016, dated 2019)
# “And” between values parts separate entries of the source, which are not always exact repeats. Equal values may be shown once.
# Assays:
# [1] = molecular target: T1, GHSR-1a (HEK293/GHSR1a cell line) (Homo sapiens, UniProt Q92847); test: Ghrelin antagonist potency (IC50) with calcium FLIPR assay, ghrelin 10 nM; type: cell-based; conditions: ghrelin antagonist potency, read-out: IC50 (Activity)
# T1 construct: expressed in transfected cells; host or cells: HEK293/GHSR1a cell line
# T1 sequence (Q92847 whole entry): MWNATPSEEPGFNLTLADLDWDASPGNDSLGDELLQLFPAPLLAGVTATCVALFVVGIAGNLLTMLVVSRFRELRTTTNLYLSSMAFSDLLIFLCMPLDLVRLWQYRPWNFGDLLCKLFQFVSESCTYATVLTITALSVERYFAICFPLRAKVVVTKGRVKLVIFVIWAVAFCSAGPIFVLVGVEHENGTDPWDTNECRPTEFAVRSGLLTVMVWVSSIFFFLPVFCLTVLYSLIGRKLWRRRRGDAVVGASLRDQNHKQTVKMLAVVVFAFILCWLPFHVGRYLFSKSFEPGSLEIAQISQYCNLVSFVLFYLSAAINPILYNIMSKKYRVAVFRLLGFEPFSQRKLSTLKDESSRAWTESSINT
# Summary of the method: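 Cells seeded 24 h before the run were loaded with calcium dye for 30-60 min at room temperature or 37° C. For agonism, compound was added at t=20 sec and the calcium signal followed for 2 minutes. For antagonism, compound plus ghrelin (10 nM) went on at t=20 sec, and IC50 reflected the drop in ghrelin response.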
# [2] = Metabolic stability in mouse liver microsomes; type: in vitro ADME
# Summary of the method: (§1)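 Test compounds were incubated with liver microsomes in 100 mM potassium phosphate buffer, pH 7.4, at 37 °C, with reactions started by an NADPH regenerating system after a 5 min preincubation. Samples taken at 0, 10, 30 and 90 min were quenched cold, centrifuged, and parent remaining was quantified by LC-MS/MS.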
# [3] = Plasma protein binding (PPB), mouse; type: in vitro ADME
# [4] = Metabolic stability in human liver microsomes; type: in vitro ADME
# Summary of the method: as §1
# [5] = molecular target: T2, recombinant human ghrelin receptor (HEK293/GRLN) (Homo sapiens, UniProt Q92847); test: Ghrelin inverse agonist potency (EC50) with IP-1 (IP-One HTRF) assay; type: cell-based; conditions: inverse agonist potency, IP-1 assay; read-out: EC50 (Activity)
# T2 construct: expressed in transfected cells
# T2 sequence (Q92847 whole entry): as above
# Summary of the method: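 HEK293/GRLN cells were seeded 18-22 hours before the test, then exposed to compound in stimulation buffer for 1 hour at 37° C, 5% CO2. IP-1 was detected by IP-One HTRF (IP1-d2 plus Tb-cryptate, 1 hour RT), reading 620 and 665 nm; the inverse agonist EC50 was derived from this.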
# [6] = Plasma protein binding (PPB), human; type: in vitro ADME; conditions: read-out: PPB (H)
# [7] = Animal PK study in mouse via i.v., p.o. and s.c. administration; type: in vivo; conditions: for PK CLiv / PK Vdiv / PK t1/2iv: i.v.; for PK CLpo / PK Vdpo / PK t1/2po: p.o.
# Summary of the method: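 Single i.v. (tail vein), s.c. (neck scruff) or p.o. (gavage) dose to mice or rats; oral vehicle 1–5% DMSO/0.5% methylcellulose, i.v./s.c. vehicle 1–5% DMSO in 20% HP-β-cyclodextrin. Plasma sampled 0.083 (i.v./s.c.) or 0.25 to 24 h, analyzed by LC-MS/MS.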
# [8] = Metabolic stability in rat liver microsomes; type: in vitro ADME
# Experimental: (§2) Metabolic Stability Study
# (§3) The metabolic stability of compounds in human, dog, rat and mouse liver microsomes was performed according the experimental conditions reported below:
# (§4) • a) Prepare the following 5 stock solutions: • 1. Test compound stock solutions: dilute 10 mM solution of dextromethorphan (Dtr) in DMSO, 10 mM solution of diphenhydramine (DPA) in DMSO, 10 mM solution of omeprazole (Ome) in DMSO, 10 mM solution of verapamil (Ver) in DMSO, and 10 mM of an inverse agonist compound in DMSO to 0.25 mM solution each with acetonitrile/water (70/30). • 2. Buffer: 100 mM potassium phosphate Buffer (PBS) at pH 7.4 • 3. Liver microsomes (20 mg/ml): Thaw in 37° C. water bath quickly • 4. 2000 μL: of NADPH regenerating system (1.3 mM). Place this system on ice before use:
# (§5) • 5. […] The test compound concentration in the wells, measured by LC-MS/MS, represents the concentration at time=0. • f) To determine the test compound concentration when t≠0, pre-incubate the NADPH regenerating system and the incubation plate containing the remaining 320 μL of incubation mixture (microsomes protein and test compound) for 5 minutes at 37° C. • g) Start the incubation reaction by adding 80 μL NADPH regenerating system to each well containing the remaining 320 μL incubation mixture. • h) After 10 min., 30 min., and 90 min. of incubation at 37° C., transfer 100 μL of the incubation mixture (microsomes protein, test compound, and NADPH) into the wells of a stop plate pre-filled with 300 μL of the cold quench solution. Shake well. • i) Centrifuge the stop plate at 5000×g for 10 minutes. Collect and dilute the supernatant 3 times with distilled water. Sample and analyze the test compound concentration for all the wells by LC-MS/MS. Animal PK Studies via i.v. (intravenous), p.o. (orally) and s.c. (subcutaneous) administrations
# [9] = Metabolic stability in dog liver microsomes; type: in vitro ADME
# Experimental: as §2, §3, §4, §5
# male C57BL/6J mice = test: Food intake test in mouse (GHSR1a inverse agonists), cumulative food intake at 1, 2, 4, 8 and 24 hrs; type: in vivo
# Experimental: Evaluation of Inverse Agonist on Food Intake Test in Mouse:
# Male C57BL/6J mice, 18-22 g body weight, were fasted overnight (16 h before compound administration) and placed in a regular light dark cycle (6:00-18:00 light/18:00-6:00 dark). After 1 wk acclimation, animals were sorted into two groups (n=6 each, 2 per cage) based on body weight. Animals in group one were be treated with vehicle and animals in group 2 were treated with the test agent (n=6 for each group). The cumulative food intake was evaluated at 1, 2, 4, 8 and 24 hrs after drug or vehicle treatment. Food intake was measured by subtracting uneaten food from the initial premeasured food.
# Food Intake Study—Evaluation of GHSR1a inverse agonists on Food Intake Test in Mouse:
# Twelve male C57BL/6J mice, weighing 18-22 g each, were fasted overnight (16 h before compound administration) and placed in a regular light dark cycle (6:00-18:00 light/18:00-6:00 dark). After 1 week acclimation, animals were sorted into two groups (n=6 each, 2 per cage) based on body weight. Animals in group one were treated with carrier minus the test compound. (control group) and animals in group 2 were treated with carrier with the test compound (experimental group). The cumulative food intake was evaluated at 1, 2, 4, 8 and 24 hrs after experimental or control treatment. Food intake was measured by subtracting uneaten food from the initial premeasured food.
# [10] = Plasma protein binding (PPB), dog; type: in vitro ADME; conditions: read-out: PPB (D) (converted)
# [11] = Plasma protein binding (PPB), rat; type: in vitro ADME; conditions: read-out: PPB (R) (converted)
Compound,IC50 [1],Metabolic Stability Study M = mouse [2],fraction unbound [3],Metabolic Stability Study H = human [4],EC50 [5],fraction unbound [6],PK F [7],PK CLiv [7],PK Vdiv [7],PK t1/2iv [7],PK CLpo [7],PK Vdpo [7],PK t1/2po [7],Metabolic Stability Study R = rat [8],Metabolic Stability Study D = dog [9],Food Intake Study (male C57BL/6J mice; 5 mg/kg sc fasted mice),Food Intake Study (male C57BL/6J mice; 30 mg/kg po fasted mice),fraction unbound [10],fraction unbound [11]
"C[C@H](NC(=O)Nc1ccc(S(=O)(=O)Nc2ccc(CC(C)(C)N)cc2)cc1)c1ccc(-c2cnccn2)c(Cl)c1Cl [H0906, (S)-N-(4-(2-amino-2-methylpropyl)phenyl)-4-(3-(1-(2,3-dichloro-4-(pyrazin-2-yl)phenyl)ethyl)ureido) benzenesulfonamide]",18.9 nM,24.4 µL/min/mg,0.0004,19.9 µL/min/mg,6.8 nM,0.0016,0.1%,3 mL/min/kg,0.27 L/kg,1.03 h,3991.2 mL/min/kg,479.77 L/kg,1.39 h,13.6 µL/min/mg,,,,,
"CNC(C)(C)Cc1ccc(NS(=O)(=O)c2ccc(NC(=O)N[C@@H](C)c3ccc(-c4cnccn4)c(Cl)c3Cl)cc2)cc1 [H0941, (S)-4-(3-(1-(2,3-dichloro-4-(pyrazin-2-yl)phenyl)ethyl)ureido)-N-(4-(2-methyl-2-(methylamino)propyl)phenyl) benzenesulfonamide]",7.7 nM,66.2 µL/min/mg,0.0005,47.7 µL/min/mg,2.8 nM,0.0002,,,,,,,,36.2 µL/min/mg,48.2 µL/min/mg,,,,
"C[C@H](NC(=O)Nc1ccc(S(=O)(=O)Nc2ccc(CC(C)(C)N(C)C)cc2)cc1)c1cccc(Cl)c1Cl [H0967, (S)-4-(3-(1-(2,3-dichlorophenyl)ethyl)ureido)-N-(4-(2-(dimethylamino)-2-methylpropyl)phenyl) benzenesulfonamide]",16 nM,58 µL/min/mg,,38.2 µL/min/mg,4.7 nM,,0.2%,39 mL/min/kg,8.62 L/kg,2.56 h,11620 mL/min/kg,2326.2 L/kg,2.31 h,,,30 mg/kg po fasted - inh 5 mg/kg sc fasted - inh,30 mg/kg po fasted - inh 5 mg/kg sc fasted - inh,,
"CC(C)(N)Cc1ccc(NS(=O)(=O)c2ccc(NC(=O)NCc3cccc(Cl)c3Cl)cc2)cc1 [H0968, N-(4-(2-amino-2-methylpropyl)phenyl)-4-(3-(2,3-dichlorobenzyl)ureido) benzenesulfonamide]",44 nM,27.4 µL/min/mg,,32.5 µL/min/mg,5.7 nM,,,,,,,,,,,,30 mg/kg po fasted - inh,,
"C[C@H](NC(=O)Nc1ccc(S(=O)(=O)Cc2ccc(CC(C)(C)N)cc2)cc1)c1cccc(Cl)c1Cl [H0969, (S)-1-(4-((4-(2-amino-2-methylpropyl)benzyl)sulfonyl)phenyl)-3-(1-(2,3-dichlorophenyl)ethyl)urea]",53 nM,74.4 µL/min/mg,,19.5 µL/min/mg,18.9 nM,,1.3%,7.67 mL/min/kg,1.97 L/kg,2.96 h,450.2 mL/min/kg,168.2 L/kg,4.32 h,,,,30 mg/kg po fasted - inh,,
"C[C@H](NC(=O)Nc1ccc(S(=O)(=O)Cc2ccc(CO)cc2)cc1)c1cccc(Cl)c1Cl [H1060, (S)-1-(1-(2,3-dichlorophenyl)ethyl)-3-(4-((4-(hydroxymethyl)benzyl)sulfonyl)phenyl)urea]",280 nM,108.7 µL/min/mg,0.0019,40 µL/min/mg,40.8 nM,0.0013,18.8%,68.8 mL/min/kg,8.25 L/kg,1.37 h,368 mL/min/kg,22.4 L/kg,0.7 h,,,,,0.0012,0.0018
"C[C@H](NC(=O)Nc1ccc(S(=O)(=O)Nc2ccc(CO)cc2)cc1)c1cccc(Cl)c1Cl [H1062, (S)-4-(3-(1-(2,3-dichlorophenyl)ethyl)ureido)-N-(4-(hydroxymethyl)phenyl) benzenesulfonamide]",222 nM,67.2 µL/min/mg,0.0019,32.4 µL/min/mg,58 nM,0.0012,,,,,,,,,,,,0.0017,0.0012
"C[C@H](NC(=O)Nc1ccc(S(=O)(=O)Cc2ccc3c(c2)CCN(C)C3)cc1)c1cccc(Cl)c1Cl [H1071, (S)-1-(1-(2,3-dichlorophenyl)ethyl)-3-(4-(((2-methyl-1,2,3,4-tetrahydroisoquinolin-6-yl)methyl)sulfonyl)phenyl)urea]",5 nM,80.7 µL/min/mg and 152.5 µL/min/mg,0.0098,,1.7 nM,0.0089,19.9%,28.5 mL/min/kg,2.83 L/kg,1.15 h,138 mL/min/kg,21.1 L/kg,1.77 h,274 µL/min/mg and 188 µL/min/mg,172.6 µL/min/mg and 160.7 µL/min/mg,,,0.0082,0.0087
"C[C@H](NC(=O)Nc1ccc(S(=O)(=O)Cc2ccc3c(c2)CNC3)cc1)c1ccccc1 [H1215, (S)-1-(4-((isoindolin-5-ylmethyl)sulfonyl)phenyl)-3-(1-phenylethyl)urea]",12.4 nM,13.7 µL/min/mg,0.093,21 µL/min/mg,4.6 nM,0.097,,,,,,,,18.5 µL/min/mg,16.6 µL/min/mg,,,,0.065
